Two compounds from ChEMBL document CHEMBL1146406, “Inhibition of Bacterial RNA Polymerases. Peptide Metabolites from the Cultures of Streptomyces sp” (J Nat Prod, 1997) can be followed below.

pIC50: −log10 of the molar value. The source made the active and inactive calls. The calls are words filed in the database; no cut-off is given here. Numbered stars: 1 amine (or outer) side, 2 acyl side, 3 side chain; on linkers, the order of the positions; unused ones are H or OH. Bridge positions count the residues as written; N and C are the ends. Square brackets hold non-standard residues; d marks the D form. Peptide text beside a SMILES is read from it. * marks the point of attachment. X2 = C[C@H](Oc1ccc([C@H](N[*:1])C(=O)[*:2])cc1)[C@@]1(/C=C/C(=O)[*:3])CO1; X1 = CC(C)[C@H](O)[C@H](C)C(=O)*; aIle = CC[C@@H](C)[C@H](N)C(=O)O; dNMeF = CN[C@H](Cc1ccccc1)C(=O)O; aThr = C[C@H](O)[C@H](N)C(=O)O

The test system of assay [1] is Escherichia coli. The assay can be described thus: (§1) Inhibition of Escherichia coli RNA polymerase by high throughput filtration assay.
Assay [2] relates to Staphylococcus aureus. The assay can be described thus: (§2) Inhibition of Staphylococcus aureus RNA polymerase by high throughput filtration assay.
The nature of assay [3]: as §1.
The nature of assay [4]: as §2.
The species entered for assay [5] is Homo sapiens. The assay can be described thus: Inhibition of human RNA polymerase.

For `CC[C@@H](C)[C@@H]1NC(=O)[C@@H](CC(C)C)NC(=O)[C@H](CC(C)C)NC(=O)[C@H](Cc2c[nH]c3ccccc23)NC(=O)CNC(=O)[C@H](CC(N)=O)NC1=O` (cyclo(GWL[dL][aIle]N)), the outcome in assay [1] and in assay [2] was inactive.
What is called pIC50 is the negative decadic logarithm of the IC50, by convention in mol/L. A higher pIC50 goes with a low IC50. In the case of `CC[C@@H](C)[C@@H]1NC(=O)[C@H](NC(=O)[C@@H](C)[C@@H](O)C(C)C)[C@H](C)OC(=O)[C@H]2COC(=O)CNC(=O)/C=C/[C@@]3(CO3)[C@H](C)Oc3ccc(cc3)[C@H](NC1=O)C(=O)N(C)[C@H](Cc1ccccc1)C(=O)N[C@@H]([C@H](C)O)C(=O)N2` [SALINAMIDE A] (X1-[dT][aIle][X2][dNMeF][aThr][dS]; ester 1-C; linker 3-6 via G), the pIC50 in assay [3] and in assay [4] was 6.30 throughout. The result in assay [5] was inactive.
